Measured values reported in PubChem BioAssay (NCI).
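All cell lines were grown in 96-well plates and treated with compound for 48 hours. The concentration for full growth arrest is given as TGI.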

Experiments:
Assay in all cases: inhibition of tumour cell growth, NCI panel, 48 h
[1] = test system: RPMI-8226 leukemia
[2] = test system: OVCAR-5 ovarian
[3] = test system: MDA-N
[4] = test system: UACC-257 melanoma
[5] = test system: EKVX NSCLC
[6] = test system: MDA-MB-435
[7] = test system: SW-620 colon
[8] = test system: T-47D breast
[9] = test system: SF-268 CNS
[10] = test system: NCI-H522 lung
[11] = test system: NCI/ADR-RES ovarian
[12] = test system: CAKI-1 renal
[13] = test system: MCF7 breast
[14] = test system: SNB-19 CNS
[15] = test system: A549 NSCLC
[16] = test system: COLO 205 colon
[17] = test system: U251 CNS
[18] = test system: SK-MEL-2 melanoma
[19] = test system: M14 melanoma
[20] = test system: DU-145 prostate
[21] = test system: MALME-3M melanoma
[22] = test system: HL-60(TB) leukemia
[23] = test system: OVCAR-8 ovarian
[24] = test system: MDA-MB-231 breast
[25] = test system: ACHN renal
[26] = test system: SK-OV-3 ovarian
[27] = test system: NCI-H460 lung
[28] = test system: K-562 leukemia
[29] = test system: MOLT-4 leukemia
[30] = test system: HOP-92 NSCLC
[31] = test system: LOX IMVI melanoma
[32] = test system: IGROV1 ovarian
[33] = test system: UACC-62 melanoma
[34] = test system: OVCAR-4 ovarian
[35] = test system: HCC-2998 colon
[36] = test system: HT29 colon
[37] = test system: SN12C renal
[38] = test system: BT-549 breast
[39] = test system: HCT-15 colon
[40] = test system: NCI-H226 lung
[41] = test system: TK-10 renal
[42] = test system: KM12 colon
[43] = test system: SK-MEL-5 melanoma
[44] = test system: SF-539 CNS
[45] = test system: NCI-H23 lung
[46] = test system: HCT-116 colon
[47] = test system: PC-3 prostate
[48] = test system: SK-MEL-28 melanoma
[49] = test system: OVCAR-3 ovarian
[50] = test system: HS 578T breast
[51] = test system: SF-295 CNS
[52] = test system: UO-31 renal
[53] = test system: A498 renal
[54] = test system: 786-0 renal
[55] = test system: HOP-62 NSCLC
[56] = test system: SR leukemia
[57] = test system: SNB-75 CNS
[58] = test system: RXF 393 renal
[59] = test system: CCRF-CEM leukemia

Measured: TGI

O=c1[nH]nc(Cc2ccc(Cl)cc2)n1CCO
not listed: [55] | [56] | [57] | [58] | [59]
> 100 µM: all other assays above

CC(=O)O[C@H]1C(=O)[C@@]2(C)[C@H]([C@H](OC(=O)c3ccccc3)[C@]3(O)C[C@H](OC(=O)[C@H](O)[C@@H](NC(=O)C(C)(O)C(C)O)c4ccccc4)C(C)=C1C3(C)C)[C@]1(OC(C)=O)CO[C@@H]1C[C@@H]2O (stereo not given in full)
0.437 µM: [49]
4.65 µM: [2]
0.169 µM: [6]
0.737 µM: [50]
> 15.9 µM: [56]
0.398 µM: [57]
0.298 µM: [22]
0.0744 µM: [3]
0.254 µM: [16]
43.1 µM: [24]
1.81 µM: [58]
0.341 µM: [10]
> 12.1 µM: [20]
0.49 µM: [44]
10.9 µM: [26]
> 16.6 µM: [1]
0.743 µM: [35]
16.5 µM: [51]
3.45 µM: [38]
5.21 µM: [55]
not listed: [13] | [17] | [18] | [30] | [36] | [40] | [42] | [46]
> 50 µM: all other assays above
